The values that follow come from patent US20230107642A1 (Erasca, Inc., priority 2020, published 2023).

Structures are written as SMILES.

The target of the first assay is T1, Cys12 of the KRAS 4B G12C protein (Homo sapiens, UniProt P01116, G12C).
T1 construct: This protein contained 188 amino acids in total, including an N-terminal 6-Histidine tag; made in house; host or cells: E. coli BL21
As to the kind of experiment: In vitro covalent adduct formation (CAF) assay, LC-MS intact mass. The format is binding. The note with it: 10 uM compound, 60 min. The procedure, abridged:
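GDP-loaded (>95%) His-TEV-tagged KRAS 4B G12C (residues 1–169), 5 μM in TBS pH 7.4, incubated with 10 μM compound (4% DMSO) at 22° C for one hour. Intact-protein LC-MS gave free:adduct ratios, reported as percent protein modified; duplicate runs.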
Take `[2H]C([2H])=C([2H])C(=O)N1C[C@H](C)N(c2nc(=O)n3c4c(c(-c5cc(Cl)c(F)cc5F)c(C(F)(F)F)cc24)SCC2(COC2)C3)C[C@H]1C` (atropisomer, axis not shown) [Example 1434, (R)-8′-((2S,5R)-4-(Acryloyl-d3)-2,5-dimethylpiperazin-1-yl)-11′-(5-chloro-2,4-difluorophenyl)-10′-(trifluoromethyl)-2′H,4′H,6′H-spiro[oxetane-3,3′-[1,4]thiazepino[2,3,4-ij]quinazolin]-6′-one]: the “% CAF 10 uM @ 60 min” value was found to be 82%. Same read-out and setting: as for `C=CC(=O)N1CCN(c2nc(=O)n3c4c(c(-c5cc(Cl)c(F)cc5F)c(C(F)(F)F)cc24)SC[C@@H]3CN2CCN(C3CC3)CC2)CC1` (atropisomer, axis not shown) [Example 1356, (3S,10S)-7-(4-acryloylpiperazin-1-yl)-10-(5-chloro-2,4-difluorophenyl)-3-((4-cyclopropylpiperazin-1-yl)methyl)-9-(trifluoromethyl)-2,3-dihydro-5H-[1,4]thiazino[2,3,4-ij]quinazolin-5-one], the figure is 92.8%. The same measure, in the same setting: with `C=CC(=O)N1[C@H](C)CN(c2nc(=O)n3c4c(c(-c5cc(Cl)c(F)cc5F)c(C(F)(F)F)cc24)SCC(CO)(CO)C3)C[C@@H]1C` [Example 1437, 8-((3S,5R)-4-acryloyl-3,5-dimethylpiperazin-1-yl)-11-(5-chloro-2,4-difluorophenyl)-3,3-bis(hydroxymethyl)-10-(trifluoromethyl)-3,4-dihydro-2H,6H-[1,4]thiazepino[2,3,4-ij]quinazolin-6-one] the figure was 87%; with `C=CC(=O)N1CCN(c2nc(=O)n3c4c(c(-c5ccc(F)cc5)c(C(F)(F)F)cc24)SC[C@@H]3CN2CCN(CC)CC2)CC1` [Example 1378, (S)-7-(4-acryloylpiperazin-1-yl)-3-((4-ethylpiperazin-1-yl)methyl)-10-(4-fluorophenyl)-9-(trifluoromethyl)-2,3-dihydro-5H-[1,4]thiazino[2,3,4-ij]quinazolin-5-one], 78.9%. The same measure, in the same setting: with `C=CC(=O)N1[C@@H]2CC[C@H]1CN(c1nc(=O)n3c4c(c(-c5cc(Cl)c(F)cc5F)c(Cl)cc14)SC[C@@H]3CN1CCN(CC)CC1)C2` [Example 1400, (3S)-7-((1R,5S)-8-acryloyl-3,8-diazabicyclo[3.2.1]octan-3-yl)-9-chloro-10-(5-chloro-2,4-difluorophenyl)-3-((4-ethylpiperazin-1-yl)methyl)-2,3-dihydro-5H-[1,4]thiazino[2,3,4-ij]quinazolin-5-one] the figure was 43.7%. Consider `C=CC(=O)N1CCN(c2nc(=O)n3c4c(c(-c5cc(Cl)c(F)cc5F)c(C(F)(F)F)cc24)SC[C@@H]3CN2C[C@@H]3C[C@H]2CO3)CC1` [Example 1311], for which the “% CAF 10 uM @ 60 min” value stood at 95.4%.

Take `C=CC(=O)N1[C@H](C)CN(c2nc(=O)n3c4c(c(-c5ccc(F)cc5)c(C(F)(F)F)cc24)SC[C@H](CO)C3)C[C@@H]1C` [Example 1399, (S)-8-((3S,5R)-4-acryloyl-3,5-dimethylpiperazin-1-yl)-11-(4-fluorophenyl)-3-(hydroxymethyl)-10-(trifluoromethyl)-3,4-dihydro-2H,6H-[1,4]thiazepino[2,3,4-ij]quinazolin-6-one]: the “% CAF 10 uM @ 60 min” value was determined as 95.5%. Same read-out and setting: with `C=CC(=O)N1[C@H](C)CN(c2nc(=O)n3c4c(c(-c5ccc(F)c(Cl)c5)c(C(F)(F)F)cc24)SC[C@@H]3CN2CCN(C3CC3)CC2)C[C@@H]1C` [Example 1372, (S)-7-((3S,5R)-4-acryloyl-3,5-dimethylpiperazin-1-yl)-10-(3-chloro-4-fluorophenyl)-3-((4-cyclopropylpiperazin-1-yl)methyl)-9-(trifluoromethyl)-2,3-dihydro-5H-[1,4]thiazino[2,3,4-ij]quinazolin-5-one] the figure was 77.2%; with `C=CC(=O)N1[C@H](C)CN(c2nc(=O)n3c4c(c(-c5ccc(F)cc5)c(C(F)(F)F)cc24)SC[C@@H](N2CCCC2=O)C3)C[C@@H]1C` [Example 1450, (S)-8-((3S,5R)-4-acryloyl-3,5-dimethylpiperazin-1-yl)-11-(4-fluorophenyl)-3-(2-oxopyrrolidin-1-yl)-10-(trifluoromethyl)-3,4-dihydro-2H,6H-[1,4]thiazepino[2,3,4-ij]quinazolin-6-one], 96%; with `C=CC(=O)N1C[C@H](C)N(c2nc(=O)n3c4c(c(-c5cc(Br)c(F)cc5F)c(C(F)(F)F)cc24)SCC2(COC2)C3)C[C@H]1C` (atropisomer, axis not shown) [Example 1445, (R)-8′-((2S,5R)-4-Acryloyl-2,5-dimethylpiperazin-1-yl)-11′-(5-bromo-2,4-difluorophenyl)-10′-(trifluoromethyl)-2′H,4′H,6′H-spiro[oxetane-3,3′-[1,4]thiazepino[2,3,4-ij]quinazolin]-6′-one], 95%.

Staying with this assay, now noted: 10 uM compound, 60 min incubation.
In the case of `C=CC(=O)N1C[C@H](C)N(c2nc(=O)n3c4c(c(-c5ccc(F)cc5F)c(C(F)(F)F)cc24)SCC2(COC2)C3)C[C@H]1C` (atropisomer, axis not shown) [Example 1109, (S)-8′-((2S,5R)-4-acryloyl-2,5-dimethylpiperazin-1-yl)-11′-(2,4-difluorophenyl)-10′-(trifluoromethyl)-2′H,4′H,6′H-spiro[oxetane-3,3′-[1,4]thiazepino [2,3,4-ij]quinazolin]-6′-one], the “% CAF 10 uM @ 60 min” value stood at 93%. On the same count and under the same terms, as for `C=CC(=O)N1CCN(c2nc(=O)n3c4c(c(-c5cccc6cnn(C)c56)c(C(F)(F)F)cc24)SC[C@@H]3COC)CC1` (atropisomer, axis not shown) [Example 1119, (3S,10S)-7-(4-acryloylpiperazin-1-yl)-3-(methoxymethyl)-10-(1-methyl-1H-indazol-7-yl)-9-(trifluoromethyl)-2,3-dihydro-5H-[1,4]thiazino[2,3,4-ij]quinazolin-5-one], the figure is 99.4%; as for `C=CC(=O)N1CCN(c2nc(=O)n3c4c(c(-c5cc(Cl)c(F)cc5F)c(C(F)(F)F)cc24)SC[C@@H]3COC)CC1` (atropisomer, axis not shown) [Example 1107, (3S,10R)-7-(4-acryloylpiperazin-1-yl)-10-(5-chloro-2,4-difluorophenyl)-3-(methoxymethyl)-9-(trifluoromethyl)-2,3-dihydro-5H-[1,4]thiazino[2,3,4-ij]quinazolin-5-one], 97%.

The assay is the same for the next values; noted with them: 10 μM compound, after 1 hour.
In the case of `[2H]C([2H])=C([2H])C(=O)N1[C@H](C)CN(c2nc(=O)n3c4c(c(-c5ccc(F)cc5)c(C(F)(F)F)cc24)SC[C@@H](OC)C3)C[C@@H]1C` [Example 1228, (S)-8-((3S,5R)-4-(acryloyl-d3)-3,5-dimethylpiperazin-1-yl)-11-(4-fluorophenyl)-3-methoxy-10-(trifluoromethyl)-3,4-dihydro-2H,6H-[1,4]thiazepino[2,3,4-ij]quinazolin-6-one], the “CAF (% after 1 hour)” value came to 96%. Same read-out and setting: with `C=CC(=O)N1[C@H](C)CN(c2nc(=O)n3c4c(c(-c5ccc(F)c(Cl)c5)c(C(F)(F)F)cc24)SC[C@@H](OCC)C3)C[C@@H]1C` [Example 1204, (S)-8-((3S,5R)-4-acryloyl-3,5-dimethylpiperazin-1-yl)-11-(3-chloro-4-fluorophenyl)-3-ethoxy-10-(trifluoromethyl)-3,4-dihydro-2H,6H-[1,4]thiazepino[2,3,4-ij]quinazolin-6-one] the figure was 95%; with `C=CC(=O)N1[C@H](C)CN(c2nc(=O)n3c4c(c(-c5cc(Cl)c(F)cc5F)c(C(F)(F)F)cc24)SC[C@@H](OCCN(CC)CC)C3)C[C@@H]1C` [Example 1236, (3S)-8-((3S,5R)-4-acryloyl-3,5-dimethylpiperazin-1-yl)-11-(5-chloro-2,4-difluorophenyl)-3-(2-(diethylamino)ethoxy)-10-(trifluoromethyl)-3,4-dihydro-2H,6H-[1,4]thiazepino[2,3,4-ij]quinazolin-6-one], 94%. On the same count and under the same terms, with `C=CC(=O)N1[C@H](C)CN(c2nc(=O)n3c4c(c(-c5ncc(C(F)(F)F)s5)c(C(F)(F)F)cc24)SC[C@@H](OC)C3)C[C@@H]1C` [Example 1216, (S)-8-((3S,5R)-4-acryloyl-3,5-dimethylpiperazin-1-yl)-3-methoxy-10-(trifluoromethyl)-11-(5-(trifluoromethyl)thiazol-2-yl)-3,4-dihydro-2H,6H-[1,4]thiazepino[2,3,4-ij]quinazolin-6-one] the figure was 94%.

The assay is the same for the next values; noted with them: after 60 min.
On to `C=CC(=O)N1CCN(c2nc(=O)n3c4c(c(-c5ccc(F)c(Cl)c5)c(C(F)(F)F)cc24)SC[C@@H](OCCOC)C3)CC1` [Example 1021, (S)-8-(4-acryloylpiperazin-1-yl)-11-(3-chloro-4-fluorophenyl)-3-(2-methoxyethoxy)-10-(trifluoromethyl)-3,4-dihydro-2H,6H-[1,4]thiazepino[2,3,4-ij]quinazolin-6-one], for which the “CAF (% binding after 60 min)” value is given as 97%. For `C=CC(=O)N1[C@H](C)CN(c2nc(=O)n3c4c(c(-c5ccc(F)c(Cl)c5)c(C(F)(F)F)cc24)SC[C@H](OC)C3)C[C@@H]1C` [Example 1045, (R)-8-((3S,5R)-4-acryloyl-3,5-dimethylpiperazin-1-yl)-11-(3-chloro-4-fluorophenyl)-3-methoxy-10-(trifluoromethyl)-3,4-dihydro-2H,6H-[1,4]thiazepino[2,3,4-ij]quinazolin-6-one], the “CAF (% binding after 60 min)” value was determined as 96%. As to `C=CC(=O)N1CCN(c2nc(=O)n3c4c(c(-c5ccc(F)c(Cl)c5)c(C(F)(F)F)cc24)SC[C@H](OCOC)C3)CC1` [Example 1006, (R)-8-(4-acryloylpiperazin-1-yl)-11-(3-chloro-4-fluorophenyl)-3-(methoxymethoxy)-10-(trifluoromethyl)-3,4-dihydro-2H,6H-[1,4]thiazepino[2,3,4-ij]quinazolin-6-one], the “CAF (% binding after 60 min)” value was 90%.
